Laboratory results reported in patent publication US8105796B2, “Regulation of expression of PI3Kβ protein in tumors” (Universita' Degli Studi di Torino, priority 2007, dated 2012).

Tests used:
PI3Kβ^+/+ MEFs = assay: Proliferation curve of mouse embryonic fibroblasts (MEFs) with p110β inhibitors; assay type: cell-based
Experimental: FIG. 3. PI3Kβ^KR expression dosage inversely correlates with phenotype severity. a) MEFs were derived from normal (PI3Kβ^KR/KR(High)) or abnormal PI3Kβ^KR/KR (Low)) embryos and the expression level of the PI3Kβ^KR/KR protein was analyzed by SDS-PAGE and immunoblotting, using the indicated antibodies. b) analysis of p110β catalytic activity. Lipid kinase assay was performed on p110β immunoprecipitated from wild type (PI3Kβ^+/+) and PI3Kβ^KR/KR(High) MEFs. c) proliferation curve of mutant MEFs with high and low PI3Kβ^KR expression levels compared to that of wild-type MEFs with or without 100 nM TGX-221 treatment (TGX).
Since p110β is activated downstream growth factor receptors, and cell growth is the driving force during embryonic development, the present inventors analyzed cell proliferation of PI3Kβ^KR/KR(High), PI3Kβ^KR/KR(Low) and PI3Kβ^+/+ MEFs.

[1] = system: Akt/PKB phosphorylation in liver; assay: Insulin-stimulated Akt phosphorylation in liver of treated mice; assay type: in vivo, mouse
Experimental: FIG. 5. After insulin stimulation, Akt phosphorylation declines in PI3Kβ^KR/KR liver faster than controls. Phosphorylation of Erk1/2 and Akt (on Thr308 and Ser473) in livers of mice of the given genotype with and without TGX-155 treatment. Lower panel: quantification of Akt phosphorylation on Ser473 (n=5)
To test this hypothesis, Akt/PKB phosphorylation was tested in wild-type and mutant mice in tissues known to be particularly sensitive to insulin signaling like the liver.

[2] = system: wild-type (PI3Kβ^+/+/neuT) tumor derived mammary gland cancer cells; assay: Proliferation curves of cultured tumor derived mammary gland cancer cells; assay type: cell-based, mouse; settings: wild-type tumor cells (FIG. 10)
Experimental: FIG. 10. Requirement of PI3Kβ for cell proliferation of tumor derived mammary gland cancer cell lines. Proliferation curves of cultured tumor cells of the two genotypes in the absence or presence of TGX-155 (10 μM) and TGX-221 (100 nM)p110β selective inhibitors. Statistical significance: wild-type cells vs all other conditions; other pairs of datasets: n.s.
Moreover, to further test if the protection against breast cancer development was intrinsic to the lack of the kinase activity, tumor cells from PI3Kβ^KR/KR and PI3Kβ^+/+ mice were cultured in the presence of p110β selective inhibitors, TGX-155 and TGX-221.

| SMILES | growth rate (cell proliferation) of MEFs (PI3Kβ^+/+ MEFs; PI3Kβ^+/+ MEFs treated with TGX-155, versus controls) | Akt phosphorylation after 5 minutes of insulin stimulation ([1]; liver of wild type mice treated with TGX-155, 5 minutes of insulin stimulation (FIG. 5)) | decline of Akt activation after insulin stimulation ([1]; liver, later time of insulin stimulation, versus untreated wild-type controls (FIG. 5)) | proliferation of wild-type tumor cells ([2]; TGX-155 10 μM) | growth rate (cell proliferation) of MEFs (PI3Kβ^+/+ MEFs; PI3Kβ^+/+ MEFs, 100 nM TGX-221, versus controls (FIG. 3c)) | proliferation of wild-type tumor cells ([2]; TGX-221 100 nM) |
| --- | --- | --- | --- | --- | --- | --- |
| Cc1cc(F)ccc1Oc1cccc2c(=O)cc(N3CCOCC3)[nH]c12 [TGX-155] | growth rate comparable to that of the controls | no differences in Akt phosphorylation | declined significantly faster | significant reduction in proliferation | – | – |
| Cc1cc(C(C)Nc2ccccc2)c2nc(N3CCOCC3)cc(=O)n2c1 (stereo not drawn) [TGX-221] | – | – | – | – | growth rate comparable to that of the controls | significant reduction in proliferation |
